The experiment addresses human recombinant KAT-II (Homo sapiens (Human), UniProt Q8N5Z0). The experiment is described as follows: KAT-II inhibitory test. Type of experiment: biochemical. To be noted: 3.0 μmol/L kynurenine, 37° C., 1 hr, pH 8.0; kynurenic acid quantified by HPLC. The method, boiled down: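 E. coli-expressed His/MBP-tagged human KAT-II (2.0 ng/μL) incubated with 3.0 μmol/L kynurenine and 10 μmol/L pyridoxal phosphate in Tris-acetate pH 8.0, 1 hr at 37 °C. Reaction stopped with TCA. Kynurenic acid quantified by reversed-phase HPLC with fluorescence detection (ex 354/em 460 nm), duplicate at each concentration.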
human recombinant KAT-II, sequence (Q8N5Z0 30-425): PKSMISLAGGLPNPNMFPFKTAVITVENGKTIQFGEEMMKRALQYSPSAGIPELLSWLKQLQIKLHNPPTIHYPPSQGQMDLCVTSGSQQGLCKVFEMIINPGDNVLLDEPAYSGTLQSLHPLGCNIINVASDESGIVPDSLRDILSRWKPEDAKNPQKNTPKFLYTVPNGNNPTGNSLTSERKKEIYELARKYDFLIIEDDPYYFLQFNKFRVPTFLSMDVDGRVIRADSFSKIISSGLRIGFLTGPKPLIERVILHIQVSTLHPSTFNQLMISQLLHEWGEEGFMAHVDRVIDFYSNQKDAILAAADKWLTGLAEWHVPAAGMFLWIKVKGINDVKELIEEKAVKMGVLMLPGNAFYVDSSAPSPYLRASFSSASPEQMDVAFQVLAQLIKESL
Take `O=C(NCc1ccccc1)[C@H]1CCCN1c1nc2c(=O)n(N3CCOCC3)c(C(F)(F)F)nc2s1` [Example 253, (R)-N-benzyl-1-[6-(morpholin-4-yl)-7-oxo-5-trifluoromethyl-6,7-dihydro-[1,3]thiazolo[5,4-d]pyrimidin-2-yl]pyrrolidine-2-carboxamide]: the half-maximal inhibitory concentration (IC50) (usually the point on the concentration scale where inhibition reaches its midpoint) is 89 nM.
Under `O=C(NCc1ccccc1)[C@H]1CCCN1c1nc2c(=O)n(CC3CCOCC3)c(C(F)F)nc2s1` [Example 254, (R)-N-benzyl-1-{5-difluoromethyl-7-oxo-6-[(tetrahydro-2H-pyran-4-yl)methyl]-6,7-dihydro-[1,3]thiazolo[5,4-d]pyrimidin-2-yl}pyrrolidine-2-carboxamide] stands 11 nM; under `COCc1nc2sc(N3CCC[C@@H]3C(=O)NCc3ccccc3)nc2c(=O)n1C1CC1` [Example 258, (R)-N-benzyl-1-[6-cyclopropyl-5-methoxymethyl-7-oxo-6,7-dihydro[1,3]thiazolo[5,4-d]pyrimidin-2-yl]pyrrolidine-2-carboxamide], 180 nM.
The same measure for `Cn1c(C2CCOCC2)nc2sc(N3CCC[C@@H]3C(=O)NCc3ccccc3)nc2c1=O` [Example 259, (R)-N-benzyl-1-[6-methyl-7-oxo-5-(tetrahydro-2H-pyran-4-yl)-6,7-dihydro[1,3]thiazolo[5,4-d]pyrimidin-2-yl]pyrrolidine-2-carboxamide]: 4.3 nM; for `CN1CCC(n2c(C(F)(F)F)nc3sc(N4CCC[C@@H]4C(=O)NCc4ccccc4)nc3c2=O)CC1` [Example 264, (R)-N-benzyl-1-[6-(1-methylpiperidin-4-yl)-7-oxo-5-trifluoromethyl-6,7-dihydro-[1,3]thiazolo[5,4-d]pyrimidin-2-yl]pyrrolidine-2-carboxamide]: 160 nM; for `C[C@@H](NC(=O)[C@H]1CCCN1c1nc2c(=O)n(C)c(C(C)(F)F)nc2s1)c1ccccc1` [Example 267, (R)-1-[5-(1,1-difluoroethyl)-6-methyl-7-oxo-6,7-dihydro[1,3]thiazolo[5,4-d]pyrimidin-2-yl]-N-((R)-1-phenylethyl)pyrrolidine-2-carboxamide]: 22 nM.
Under `Cn1c(C2(F)CC2)nc2sc(N3CCC[C@@H]3C(=O)NCc3ccccc3)nc2c1=O` [Example 268, (R)-N-benzyl-1-[5-(1-fluorocyclopropyl)-6-methyl-7-oxo-6,7-dihydro[1,3]thiazolo[5,4-d]pyrimidin-2-yl]pyrrolidine-2-carboxamide] stands 8.8 nM.
Turning to `Cn1c(C(F)(F)c2ccccn2)nc2sc(N3CCC[C@@H]3C(=O)NCc3ccccc3)nc2c1=O` [Example 273, (R)-N-benzyl-1-{5-[difluoro(pyridin-2-yl)methyl]-6-methyl-7-oxo-6,7-dihydro[1,3]thiazolo[5,4-d]pyrimidin-2-yl}pyrrolidine-2-carboxamide], the IC50 was determined as 5.6 nM.
Regarding `Cn1c(C(F)F)nc2sc(N3CCC[C@@H]3C(=O)NCc3ccccc3)nc2c1=O` [Example 281, (R)-N-benzyl-1-(5-difluoromethyl-6-methyl-7-oxo-6,7-dihydro-[1,3]thiazolo[5,4-d]pyrimidin-2-yl)pyrrolidine-2-carboxamide], the IC50 was 27 nM.
Turning to `CN(C)CCCn1c(C(F)(F)F)nc2sc(N3CCC[C@@H]3C(=O)NCc3ccccc3)nc2c1=O` [Example 294, (R)-N-benzyl-1-{6-[3-(N′,N′-dimethylamino)propyl]-7-oxo-5-trifluoromethyl-6,7-dihydro-[1,3]thiazolo[5,4-d]pyrimidin-2-yl}pyrrolidine-2-carboxamide], the IC50 stood at 170 nM.
The same measure for `Cn1c(-c2ncccc2F)nc2sc(N3CCC[C@@H]3C(=O)NCc3ccccc3)nc2c1=O` [Example 298, (R)-N-benzyl-1-[5-(3-fluoropyridin-2-yl)-6-methyl-7-oxo-6,7-dihydro-[1,3]thiazolo[5,4-d]pyrimidin-2-yl]pyrrolidine-2-carboxamide]: 26 nM.
Under `CCn1c(C(F)F)nc2sc(N3CCC[C@@H]3C(=O)N[C@@H](c3ccccc3)C3CC3)nc2c1=O` [Example 299, (R)-N-[(R)-cyclopropyl(phenyl)methyl]-1-(5-difluoromethyl-6-ethyl-7-oxo-6,7-dihydro-[1,3]thiazolo[5,4-d]pyrimidin-2-yl)pyrrolidine-2-carboxamide] stands 460 nM; under `CCn1c(C(F)F)nc2sc(N3CCC[C@@H]3C(=O)N[C@H](COC)c3ccccc3)nc2c1=O` [Example 300, (R)-1-(5-difluoromethyl-6-ethyl-7-oxo-6,7-dihydro-[1,3]thiazolo[5,4-d]pyrimidin-2-yl)-N-((S)-2-methoxy-1-phenylethyl)pyrrolidine-2-carboxamide], 180 nM.
For `CCn1c(C(F)F)nc2sc(N3CCC[C@@H]3C(=O)N[C@@H](c3ccccc3)C(F)(F)F)nc2c1=O` [Example 301, (R)-1-(5-difluoromethyl-6-ethyl-7-oxo-6,7-dihydro-[1,3]thiazolo[5,4-d]pyrimidin-2-yl)pyrrolidine-N-((S)-2,2,2-trifluoro-1-phenylethyl)-2-carboxamide], the IC50 came out at 2600 nM.
Under `CCn1c(C(F)F)nc2sc(N3CCC[C@@H]3C(=O)NCc3ccc4c(c3)OCO4)nc2c1=O` [Example 304, (R)-N-[(benzo[1,3]dioxo-5-yl)methyl]-1-(5-difluoromethyl-6-ethyl-7-oxo-6,7-dihydro-[1,3]thiazolo[5,4-d]pyrimidin-2-yl)pyrrolidine-2-carboxamide] stands 21 nM; under `CCn1c(C(F)F)nc2sc(N3CCC[C@@H]3C(=O)NCc3ccco3)nc2c1=O` [Example 307, (R)-1-(5-difluoromethyl-6-ethyl-7-oxo-6,7-dihydro-[1,3]thiazolo[5,4-d]pyrimidin-2-yl)-N-[(furan-2-yl)methyl]pyrrolidine-2-carboxamide], 120 nM; under `CCn1c(C(F)F)nc2sc(N3CCC[C@@H]3C(=O)NCc3cccs3)nc2c1=O` [Example 309, (R)-1-(5-difluoromethyl-6-ethyl-7-oxo-6,7-dihydro-[1,3]thiazolo[5,4-d]pyrimidin-2-yl)-N-[(thiophen-2-yl)methyl]pyrrolidine-2-carboxamide], 61 nM.
As for `CCn1c(C(F)F)nc2sc(N3CCC[C@@H]3C(=O)NCc3cc(C)on3)nc2c1=O` [Example 311, (R)-1-(5-difluoromethyl-6-ethyl-7-oxo-6,7-dihydro-[1,3]thiazolo[5,4-d]pyrimidin-2-yl)-N-[(5-methyl-isoxazol-3-yl)methyl]pyrrolidine-2-carboxamide], the IC50 was determined as 340 nM.
Under `CCn1c(C(F)F)nc2sc(N3CCC[C@@H]3C(=O)NCc3cc(C)nn3C)nc2c1=O` [Example 313, (R)-1-(5-difluoromethyl-6-ethyl-7-oxo-6,7-dihydro-[1,3]thiazolo[5,4-d]pyrimidin-2-yl)-N-[(2,5-dimethyl-2H-pyrazol-3-yl)methyl]pyrrolidine-2-carboxamide] stands 1100 nM; under `CCn1c(C(F)F)nc2sc(N3CCC[C@@H]3C(=O)NCc3nccs3)nc2c1=O` [Example 314, (R)-1-(5-difluoromethyl-6-ethyl-7-oxo-6,7-dihydro-[1,3]thiazolo[5,4-d]pyrimidin-2-yl)-N-[(1,3-thiazol-2-yl)methyl]pyrrolidine-2-carboxamide], 610 nM.

The values are drawn from US10065972B2, “Bicyclic or tricyclic heterocyclic compound” (MITSUBISHI TANABE PHARMA CORPORATION, priority 2014, dated 2018).
